Laboratory results published in patent publication US4263323A, “β-Receptor blocking compounds and treatment of cardiovascular disorders therewith” (priority 1979, dated 1981).

What was measured:
[1] = target: T1, β-receptors (vascular resistance in one hind leg) (Felis catus, UniProt Q9TST5); assay: β-blockade of isoprenaline peripheral resistance response (hind leg), reserpinized anesthetized cat; format: in vivo; conditions: iv, 0.012-51.2 μmol/kg, isoproterenol 0.1 μg/kg i.v.
T1 construct: from tissue; host or cells: hind-leg vasculature of the living, reserpinized, anesthetized cat (in vivo)
Procedure: (§1) The agents of the present invention were tested as regards their biological properties. All compounds were thereby tested in anesthetized cats (males and females weighing 2.5-3.5 kg) pretreated with reserpine (5 mg/kg bodyweight administered intramuscularly) about 16 hours before the experiments. The animals were pretreated with reserpine in order to eliminate the endogenous sympathetic control of heart rate and vascular smooth muscle tone. The cats were anesthetized with pentobarbital (30 mg/kg bodyweight administered i.p.) and artificially ventilated with room air. A bilateral vagotomy was performed in the neck. Blood pressure was obtained from a cannulated carotid artery and heart rate was registered from a cardiotachometer, triggered by the electrocardiogram (ECG). Vascular resistance in one hind leg was recorded by an autoperfusion technique. Intrinsic beta mimetic activity on the heart was seen as increased heart rate after drug administration. The test compounds were given intravenously in logarithmically increasing doses. […] Blockade of the heart rate and vascular resistance response to isoproterenol was calculated for each dose and expressed as percent decrease of the response obtained when isoproterenol was injected before any dose of the test compound. […]

cardiac β-receptors = target: T2, cardiac β-receptors (Felis catus, UniProt Q9TST6); assay: β-blockade of isoprenaline heart rate response, reserpinized anesthetized cat; format: in vivo; conditions: iv, 0.012-51.2 μmol/kg, isoproterenol 0.1 μg/kg i.v.
T2 construct: from tissue; host or cells: heart of the living, reserpinized, anesthetized cat (in vivo heart rate)
Procedure: The new compounds have valuable pharmacological properties. Thus they block cardiac β-receptors, which is shown at the determination of the antagonism of tachycardia after an intravenous injection of 0.1 ug/kg of 1-isoproterenol sulphate on an anaesthetized cat at an intravenous dose of 0.012-51.2 umol/kg. The compounds are heart selective with regard to their β-blocking activity.
as §1, with “Blood pressure was obtained from a cannulated carotid artery and heart rate was registered from a cardiotachometer, triggered by the electrocardiogram (ECG).” left out, “technique.” for “technique. Intrinsic beta mimetic activity on the heart was seen as increased heart rate after drug administration. The test compounds were given intravenously in logarithmically increasing doses.”

heart rate = assay: Intrinsic beta mimetic activity on the heart, reserpinized cat; format: in vivo
Procedure: as §1

α-receptors = target: T3, α-receptors (Rattus norvegicus, UniProt P43140); assay: α-receptor blocking activity in isolated rat vas deferens (noradrenaline contraction); conditions: read-out: pA2 (α-receptor blocking activity) (converted)
T3 construct: from tissue; host or cells: isolated rat vas deferens
T3 sequence (P43140 1-466): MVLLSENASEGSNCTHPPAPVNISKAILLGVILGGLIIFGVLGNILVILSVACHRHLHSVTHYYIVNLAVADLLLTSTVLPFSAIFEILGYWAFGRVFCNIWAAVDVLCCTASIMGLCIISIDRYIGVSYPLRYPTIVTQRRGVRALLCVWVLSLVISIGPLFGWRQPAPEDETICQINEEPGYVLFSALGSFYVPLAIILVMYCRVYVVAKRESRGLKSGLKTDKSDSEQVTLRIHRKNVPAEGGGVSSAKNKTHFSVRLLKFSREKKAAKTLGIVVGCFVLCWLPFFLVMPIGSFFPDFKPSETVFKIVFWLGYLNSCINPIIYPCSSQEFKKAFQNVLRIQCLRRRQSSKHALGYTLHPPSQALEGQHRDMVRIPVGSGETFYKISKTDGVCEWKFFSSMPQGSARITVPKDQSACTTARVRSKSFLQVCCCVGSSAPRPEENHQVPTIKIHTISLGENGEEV
Procedure: α-receptor blocking activity was tested in isolated rat vas deferens. Noradrenaline administered to the organ bath induces a contraction in vas deferens by activating α-receptors. The ability of the test compounds to inhibit this noradrenaline response was studied. The α-receptor blocking activity was expressed as pA2 values. pA2 is defined as the negative logarithm of the concentration of an antagonist (in our case the test compounds) which leads to the fact that the dose of the agonist (in our case noradrenaline) has to be doubled in order to obtain the same effect of the agonist as that obtained without the antagonist present. Thus a high pA2 value indicates a high α-receptor blocking activity of a compound.

T1 sequence (Q9TST5 whole entry): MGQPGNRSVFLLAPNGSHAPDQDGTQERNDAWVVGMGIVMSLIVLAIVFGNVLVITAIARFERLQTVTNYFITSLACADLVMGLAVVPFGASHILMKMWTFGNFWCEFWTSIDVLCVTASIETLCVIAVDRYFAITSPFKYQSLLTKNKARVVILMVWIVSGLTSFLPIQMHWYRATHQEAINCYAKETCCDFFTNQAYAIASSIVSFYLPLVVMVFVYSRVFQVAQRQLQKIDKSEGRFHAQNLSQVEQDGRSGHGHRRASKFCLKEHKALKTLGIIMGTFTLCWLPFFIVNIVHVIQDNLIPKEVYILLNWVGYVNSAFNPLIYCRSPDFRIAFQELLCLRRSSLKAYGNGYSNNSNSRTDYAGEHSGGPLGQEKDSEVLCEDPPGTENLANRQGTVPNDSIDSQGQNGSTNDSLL
T2 sequence (Q9TST6 whole entry): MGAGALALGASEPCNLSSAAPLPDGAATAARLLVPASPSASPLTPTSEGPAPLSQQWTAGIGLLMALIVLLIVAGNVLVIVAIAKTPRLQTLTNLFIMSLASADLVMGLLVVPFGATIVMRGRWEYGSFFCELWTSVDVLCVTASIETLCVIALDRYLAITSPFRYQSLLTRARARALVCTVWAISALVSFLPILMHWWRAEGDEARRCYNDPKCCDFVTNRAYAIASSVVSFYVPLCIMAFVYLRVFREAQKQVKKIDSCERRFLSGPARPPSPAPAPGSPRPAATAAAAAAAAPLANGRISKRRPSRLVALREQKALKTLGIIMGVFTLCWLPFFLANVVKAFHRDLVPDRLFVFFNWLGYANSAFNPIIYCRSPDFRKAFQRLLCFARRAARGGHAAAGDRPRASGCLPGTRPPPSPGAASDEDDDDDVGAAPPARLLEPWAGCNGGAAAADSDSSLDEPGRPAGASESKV

Question: For `COCCNC(=O)COc1ccccc1OCC(O)CNCCOc1ccc(O)cc1` (centres unmarked) [3-[2-(4-hydroxyphenoxy)ethylamino]-1-o-methoxyethylaminocarbonylmethoxyphenoxy-propanol-2], which ED50 [1] is on record?
Answer: Its ED50 is 1.8 µmol/kg.

Question: What about the ED50 (cardiac β-receptors) of the same compound?
Answer: The ED50 was 0.05 µmol/kg.

Question: And the Emax (heart rate; Felis catus, iv, % of isoprenaline)?
Answer: The Emax was 0%.

Question: What about the “Intrinsic activity Δbeats/min.” value (heart rate; i.v.) of the same compound?
Answer: Its value is 0 beats/min.

Question: What about the Kb (α-receptors) of the same compound?
Answer: The Kb was 3.16 µM.
